According to patent publication US8697911B2, “Rho kinase inhibitors” (Boehringer Ingelheim International GmbH, priority 2010, dated 2014):

Molecular target: ROCKII (1-543) (Homo sapiens (Human), UniProt O75116)
Assay: IMAP Assay (Assay 2)
Type: biochemical
Settings: IMAP fluorescence polarization; 100 μM ATP, 1 nM kinase
Procedure: This assay is performed using FAM S6 substrate peptide (Catalogue #R7184) and IMAP FP Screening Express Kit detection reagents from Molecular Devices (Sunnyvale, Calif.) in IMAP kinase reaction buffer (Tris-HCl, pH 7.2, 10 mM MgCl2, 0.05% NaN3, 0.1% phosphate-free BSA) containing 1 mM DTT. Test compounds dissolved in neat DMSO at 0.3 mg/mL are serially diluted 1 to 3 for concentration response in 100% DMSO. The DMSO serial dilutions are further diluted 33.33-fold in kinase reaction buffer, and 10 μL of this buffer dilution is transferred to Corning black 96-well half area NBS plates for a final top concentration of 3 μg/mL in 1% DMSO. 10 μL aliquot of 3 nM ROCKII (1-543) diluted in kinase reaction buffer is added to each assay well for a final concentration of 1 nM kinase. 10 μL of a mixture of 600 nM FAM S6 peptide and 300 μM ATP diluted in kinase reaction buffer is added to each well for a final concentration of 200 nM peptide and 100 μM ATP. The kinase reaction mixture is incubated for 60 minutes at room temperature. Positive controls are reaction mixtures containing no test compound and negative controls (blanks) are reaction mixtures containing no kinase. The kinase reaction is stopped by addition of 60 μL IMAP progressive binding reagent (Catalog #R7284) diluted 400-fold in 1× Binding buffer A. After 30 min of incubation at room temperature, the plates are read for fluorescence polarization on Analyst Plate Reader using Ex 485 nm, Em 530 nm, and FL 505 dichroic minor. The mP signals are converted to percent of control (POC) values using the formula: POC=100*(Signal−BCTRL)÷(PCTRL−BCTRL)
Where Signal is the test well signal, BCTRL is the average of background (negative control) well signals on the plate and PCTRL is the average of positive control well signals on the plate. For the concentration-responsive compounds, POC as a function of test compound concentration is fitted to a 4-parameter logistic equation of the form: Y=A+(B−A)/[1+(x/C)D]
Where A, B, C, and D are fitted parameters (parameter B is fixed at zero POC), and x and y are the independent and dependent variables, respectively. The IC50 is determined as the inflection point parameter, C.

Sequence of ROCKII (1-543) (O75116 1-543, species assumed): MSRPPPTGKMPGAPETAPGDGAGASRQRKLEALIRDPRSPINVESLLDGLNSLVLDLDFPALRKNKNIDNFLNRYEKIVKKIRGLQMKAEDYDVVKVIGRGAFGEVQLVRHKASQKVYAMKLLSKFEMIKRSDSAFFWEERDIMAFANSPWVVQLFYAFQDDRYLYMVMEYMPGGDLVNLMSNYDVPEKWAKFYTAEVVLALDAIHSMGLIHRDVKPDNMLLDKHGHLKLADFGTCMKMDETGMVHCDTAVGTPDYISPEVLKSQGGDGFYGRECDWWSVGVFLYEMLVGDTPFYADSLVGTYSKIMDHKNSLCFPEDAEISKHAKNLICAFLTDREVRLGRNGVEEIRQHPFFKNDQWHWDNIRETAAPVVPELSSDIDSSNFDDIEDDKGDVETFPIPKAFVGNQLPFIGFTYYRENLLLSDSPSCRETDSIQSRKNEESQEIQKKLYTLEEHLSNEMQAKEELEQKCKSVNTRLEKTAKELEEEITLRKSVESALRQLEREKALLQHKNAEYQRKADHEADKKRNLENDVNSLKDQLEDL

| Structure (SMILES) | IC50 |
| --- | --- |
| Cc1nc(-c2ccncc2)sc1C(=O)NCc1cccc(C(=O)Nc2nc3c(s2)C[C@@H](N2CCOCC2)CC3)c1 [compound 168] | 370 pM |
| CN1CCc2ccc(NC(=O)c3cccc(CNC(=O)c4ccc(-c5ccncc5)s4)c3)cc2C1 [compound 70] | 250 pM |
| Cc1nc(-c2ccncc2)sc1C(=O)NCc1cccc(C(=O)Nc2nc3c(s2)C[C@@H](N(C)C)CC3)c1 [compound 205] | 250 pM |
| Cc1c(C(=O)NCc2cccc(C(=O)Nc3nc4c(s3)C[C@@H](N(C)C)CC4)c2)nnn1-c1nonc1N [compound 142] | 330 pM |
| N[C@@H]1CCc2nc(NC(=O)c3cccc(CNC(=O)c4csc(-c5ccncc5)n4)c3)sc2C1 [compound 32] | 4800 pM |
| CN(C)[C@H]1CCc2nc(NC(=O)c3cccc(CNC(=O)c4ccc(-c5cnco5)s4)c3)sc2C1 [compound 128] | 370 pM |
| CN1CCc2nc(NC(=O)c3cccc(CNC(=O)c4ccc(-c5ccncc5)cc4)c3)sc2C1 [compound 56] | 260 pM |
| Cc1nnnn1-c1ccc(C(=O)NCc2cccc(C(=O)Nc3nc4c(s3)C[C@@H](N(C)C)CC4)c2)cc1 [compound 104] | 430 pM |
| Cc1nnnn1-c1ccc(C(=O)NCc2cccc(C(=O)Nc3nc4c(s3)C[C@@H](N3CCOCC3)CC4)c2)cc1 [compound 174] | 350 pM |
| CN(C)[C@H]1CCc2nc(NC(=O)c3cccc(CNC(=O)c4nnn(-c5nonc5N)c4-c4ccccc4)c3)sc2C1 [compound 138] | 210 pM |
| CN(C)[C@H]1CCc2nc(NC(=O)c3cccc(CNC(=O)c4ccc(-c5ccncc5)s4)c3)sc2C1 [compound 126] | 270 pM |
| CN(C)[C@H]1CCc2nc(NC(=O)c3cccc(CNC(=O)c4cc(-c5ccncc5)[nH]n4)c3)sc2C1 [compound 207] | 200 pM |
| CN(C)[C@H]1CCc2nc(NC(=O)c3cccc(CNC(=O)c4cccc(-c5cn[nH]c5)c4)c3)sc2C1 [compound 132] | 320 pM |
| CN(C)[C@H]1CCc2nc(NC(=O)c3cccc(CNC(=O)c4ccc(-n5ccnc5)cc4)c3)sc2C1 [compound 134] | 240 pM |
| N#Cc1ccc2cc(C(=O)NCc3cccc(C(=O)Nc4nc5c(s4)C[C@@H](N4CCOCC4)CC5)c3)[nH]c2c1 [compound 176] | 870 pM |
| O=C(NCc1cccc(C(=O)Nc2nc3c(s2)C[C@@H](N2CCOCC2)CC3)c1)c1cccc(-c2cn[nH]c2)c1 [compound 170] | 410 pM |
| Nc1nonc1-n1nnc(C(=O)NCc2cccc(C(=O)Nc3nc4c(s3)C[C@@H](N3CCOCC3)CC4)c2)c1-c1ccccc1 [compound 150] | 2650 pM |
| CN1CCc2nc(NC(=O)c3cccc(CNC(=O)c4ccc(-c5cn[nH]c5)s4)c3)sc2C1 [compound 120] | 770 pM |
| CN1CCc2ccc(NC(=O)c3cccc(CNC(=O)c4cc5ccc(C(N)=O)cc5n4C)c3)cc2C1 [compound 84] | 260 pM |
| CN(C)[C@H]1CCc2nc(NC(=O)c3cccc(CNC(=O)c4ccc(-c5cnco5)cc4)c3)sc2C1 [compound 136] | 200 pM |

| Structure (SMILES) | IC50 |
| --- | --- |
| CN(C)[C@H]1CCc2nc(NC(=O)c3cccc(CNC(=O)c4csc(-c5cccnc5)n4)c3)sc2C1 [compound 108] | 320 pM |
| CN1CCc2nc(NC(=O)c3cccc(CNC(=O)c4ccc5cc(O)ccc5c4)c3)sc2C1 [compound 20] | 390 pM |
| N#Cc1ccn2cc(C(=O)NCc3cccc(C(=O)Nc4nc5c(s4)C[C@@H](N4CCOCC4)CC5)c3)nc2c1 [compound 148] | 520 pM |
| CN1CCc2nc(NC(=O)c3cccc(CNC(=O)c4ccc(-c5cnco5)cc4)c3)sc2C1 [compound 12] | 210 pM |
| CN1CCc2nc(NC(=O)c3cccc(CNC(=O)c4cn5cc(C(N)=O)ccc5n4)c3)sc2C1 [compound 209] | 3700 pM |
| CN(C)[C@H]1CCc2nc(NC(=O)c3cccc(CNC(=O)c4ccc(-c5cn[nH]c5)s4)c3)sc2C1 [compound 130] | 220 pM |
| CN(C)[C@H]1CCc2nc(NC(=O)c3cccc(CNC(=O)c4csc(-c5ccncc5)n4)c3)sc2C1 [compound 140] | 870 pM |
| O=C(NCc1cccc(C(=O)Nc2nc3c(s2)C[C@@H](N2CCOCC2)CC3)c1)c1ccc(-c2cnco2)cc1 [compound 162] | 430 pM |
| CN1CCc2nc(NC(=O)c3cccc(CNC(=O)c4ccc(-c5ccncc5)s4)c3)sc2C1 [compound 112] | 180 pM |
| CN1CCc2ccc(NC(=O)c3cccc(CNC(=O)c4ccc(-c5cn[nH]c5)s4)c3)cc2C1 [compound 78, 5-(1H-pyrazol-4-yl)-thiophene-2-carboxylic acid 3-(2-methyl-1,2,3,4-tetrahydro-isoquinolin-7-ylcarbamoyl)-benzylamide] | 170 pM |
| CN1CCc2ccc(NC(=O)c3cccc(CNC(=O)c4nc(-c5cccnc5)cs4)c3)cc2C1 [compound 202] | 72000 pM |
| O=C(NCc1cccc(C(=O)Nc2nc3c(s2)C[C@@H](N2CCOCC2)CC3)c1)c1ccc(-n2ccnc2)cc1 [compound 172] | 380 pM |
| O=C(Nc1nc2c(s1)C[C@@H](N1CCOCC1)CC2)c1cccc(CNC(=O)c2cc(-c3ccncc3)[nH]n2)c1 [compound 166] | 340 pM |
| CN1CCc2ccc(NC(=O)c3cccc(CNC(=O)N4CCc5c(C#N)cccc54)c3)cc2C1 [compound 201, 4-cyano-2,3-dihydro-indole-1-carboxylic acid 3-(2-methyl-1,2,3,4-tetrahydro-isoquinolin-7-ylcarbamoyl)-benzylamide] | 34000 pM |
| CN(C)[C@H]1CCc2nc(NC(=O)c3cccc(CNC(=O)c4cn5ccc(C#N)cc5n4)c3)sc2C1 [compound 98] | 270 pM |
| CN1CCc2nc(NC(=O)c3cccc(CNC(=O)c4ccc(-n5ccnc5)cc4)c3)sc2C1 [compound 2] | 1900 pM |
| O=C(Nc1nc2c(s1)C[C@@H](N1CCOCC1)CC2)c1cccc(CNC(=O)c2csc(-c3ccncc3)n2)c1 [compound 164] | 930 pM |
| O=C(Nc1nc2c(s1)C[C@@H](N1CCOCC1)CC2)c1cccc(CNC(=O)c2csc(-c3cccnc3)n2)c1 [compound 146] | 730 pM |
| CN1CCc2nc(NC(=O)c3cccc(CNC(=O)c4ccc(-c5cnco5)s4)c3)sc2C1 [compound 114] | 450 pM |
| CN(C)[C@H]1CCc2nc(NC(=O)c3cccc(CNC(=O)c4ccc(-c5ccncc5)cc4)c3)sc2C1 [compound 106] | 220 pM |
